# US6662040B1, “Methods of photoacoustic imaging” (Amersham Health AS, priority 1997, dated 2003)
# What was measured:
# HT-29 tumors = experiment: Comparative biodistribution in mice containing HT-29 tumors; assay type: in vivo, female immunodeficient mice; details: for detection in the tumor: PBS solution
# Description: FIG. 1a is a graph of comparative biodistribution data of contrast agent NC100448 versus indocyanine green as control in female immunodeficient mice containing HT-29 tumors at one hour post intravenous injection of phosphate buffered saline solutions of each.
# FIG. 1b is a graph of comparative biodistribution data of contrast agent NC100448 versus indocyanine green as control in female immunodeficient mice containing HT-29 tumors at three hours post intravenous injection of phosphate buffered saline solutions of each. […] Relative to FIG. 1a, the concentration of the contrast agent in the tumor has increased while the concentration in the blood has decreased.
# Biodistribution results are presented in FIGS. 1a (one hour post-dosing) and 1b (three hours post-dosing).
# [1] = Photoacoustic imaging with infrared radiation in mice; assay type: in vivo, hairless, immunocompetent mice; details: 100 μl i.v. tail vein of 4.6 mg/ml in PBS, 750 nm alexandrite laser, immediately following injection
# Description: The dry contrast agent (4.6 mg) was dissolved immediately before use in 1 ml phosphate buffered saline (Delbecco's buffer). The solution was doubly filtered through a syringe filter with a pore size of 0.45 μm and then was stored in the dark before injection.
# The test animals were hairless, immunocompetent mice weighing about 23 g, which were anaesthetized I. m. with 5 μl xylazine (Rompun) and 10 μl ketamine prior to the measurements.
# The irradiating light was produced by an alexandrite laser operating at a frequency of 750 nm. The light beam was attenuated with a neutral density filter so that the energy imparted by each pulse to the skin of the mice was less than 50 millijoules.
# For imaging, the mouse rested on the lithium niobate acoustic transducer. The photoacoustic signal was detected after it passed to the opposite side of the mouse from incident radiation. The signal was detected after it passed through the body of the mouse to the opposite side from the point of irradiation.
# Before injection of the contrast agent, the first mouse was positioned on its back on the transducer so as to maximize the internal signal when the skin above the liver was irradiated. […] The injected dose was 100 μl injected intravenously into the tail vein with a 26 gauge needle. Immediately following injection, the mouse was again positioned for a maximum signal.
# [2] = cited from earlier work
# [3] = not told
# Description: Monochromatic X-rays with a photon energy of 20 to 30 keV are obtained with a double crystal monochromator using white X-rays from a sychrotron. The beam intensity is modulated by a rotating lead plate chopper with a frequency of 10 Hz. The sample chamber is a cylindrical cell with a volume of about 0.5 ml in a saline bath which has two beryllium windows. The photon flux into the sample chamber is measured with an ionization chamber placed in front.
# The amplitude of the photoacoustic signal, normalized to the photon flux, is measured when the sample chamber contains the saline solution and when it contains a barium sulfate suspension.
# The amplitude of the photoacoustic signal, normalized to the photon flux, is measured when the sample chamber contains the saline solution and when it contains a solution of iodixanol in PBS.
# [4] = one hour post intravenous injection
# [5] = three hours post intravenous injection
compound,measurement,setting,value
"bis(thioether) 2:1 dye:polymer Reaction Product Between 2-[2-[2-chloro-3-[[1,3-dihydro-1,1,-dimethyl-3-(3-sulfopropyl)-2H-benz [e]indol-2-ylidene]ethylidene]-5-(ethoxycarbonyl)-1-cyclohexen-1-yl]ethenyl]-1,1-dimethyl-3-(3-sulfopropyl)-1H-benz[e]indolium, Inner Salt, Sodium Salt and Disodium PEG3,4000-α,ω-dithiolate [NC100448]",detection in the tumor,HT-29 tumors; [4],detected in the tumor
same,concentration in the blood relative to FIG. 1a (one hour),HT-29 tumors; [5],decreased
same,concentration in the tumor relative to FIG. 1a (one hour),HT-29 tumors; [5],increased
same,detection in the tumor,HT-29 tumors; [5],detected in the tumor
same,maximum detected signal from the blood vessels of the liver versus prior to injection,[1],5 to 10 times larger
Oc1ccc2ccccc2c1N=Nc1ccc(N=Nc2ccccc2)cc1 [Sudan III],solubility in sesame oil,[2]; sesame oil,soluble in sesame oil
same,solubility in water,[2]; water,very water insoluble
CC(=O)N(CC(O)CN(C(C)=O)c1c(I)c(C(=O)NCC(O)CO)c(I)c(C(=O)NCC(O)CO)c1I)c1c(I)c(C(=O)NCC(O)CO)c(I)c(C(=O)NCC(O)CO)c1I (stereo not shown) [iodixanol],"amplitude of the photoacoustic signal normalized to photon flux, versus saline solution",[3],larger
CC1(C)C(/C=C/C=C/C=C/C=C2\N(CCCCS(=O)(=O)O)c3ccc4ccccc4c3C2(C)C)=[N+](CCCCS(=O)(=O)[O-])c2ccc3ccccc3c21 [indocyanine green],detection in the tumor,HT-29 tumors; [4],negligibly detected
same,detection in the tumor,HT-29 tumors; [5],negligibly detected
